Columns and labels:
Assay in all cases: biochemical
Format in all cases: binding
HLA DRB1*11:01 = HLA DRB1*11:01 (Homo sapiens, UniProt P01903+P01911, A100R/A169T/A87E/I96F/K41T/L162R/M171V/P40S/Q125H/Q178H/Q39Y/Q99D/R42S/S66Y/T262R/V115G/W38E); settings: binder threshold 1,000 nM, read-out: In vitro (IC50 nM) DRB1*11:01
HLA DRB1*09:01 = HLA DRB1*09:01 (Homo sapiens, UniProt P01903+P01911, A100R/A103E/D57H/D86V/F55Y/F60I/F76Y/I96F/K127E/L162R/M171V/P40D/Q125H/Q99R/R33Q/R42F/S133A/S66N/T210M/V115G/W38K/Y107V/Y59G/Y89S); settings: binder threshold 1,000 nM, read-out: In vitro (IC50 nM) DRB1*09:01
HLA DRB1*01:01 = HLA DRB1*01:01 (Homo sapiens, UniProt P01903+P01911, A100R/D57E/F55L/F60I/F76Y/I96L/L162R/M171V/P40L/Q125E/R42F/V115G/Y59C); settings: binder threshold 1,000 nM, read-out: In vitro (IC50 nM) DRB1*01:01
HLA DRB1*04:05 = HLA DRB1*04:05 (Homo sapiens, UniProt P01903+P01911, A100R/A169T/D86S/F76Y/I96L/K127E/L162R/M171V/N62H/P40V/Q125Y/R42H/S133A/S149N/S66Y/V115G/V209L/W38E); settings: binder threshold 1,000 nM, read-out: In vitro (IC50 nM) DRB1*04:05
HLA DRB1*15:01 = HLA DRB1*15:01 (Homo sapiens, UniProt P01903+P01911); settings: binder threshold 1,000 nM, read-out: In vitro (IC50 nM) DRB1*15:01
HLA DRB1*04:01 = HLA DRB1*04:01 (Homo sapiens, UniProt P01903+P01911, A100K/A169T/F76Y/I96L/K127E/L162R/M171V/N62H/P40V/Q125Y/R42H/S133A/S149N/S66Y/V115G/V209L/W38E); settings: binder threshold 1,000 nM, read-out: In vitro (IC50 nM) DRB1*04:01
HLA DRB1*07:01 = HLA DRB1*07:01 (Homo sapiens, UniProt P01903+P01911, A100R/A102G/A103Q/D57E/D86V/E43K/F76Y/K127E/L162R/M171V/P40G/Q125H/Q99D/R33Q/R42Y/R54Q/S133A/S66F/T210M/V115G/Y107V/Y59L/Y89S); settings: binder threshold 1,000 nM, read-out: In vitro (IC50 nM) DRB1*07:01
HLA DRB1*12:01 = HLA DRB1*12:01 (Homo sapiens, UniProt P01903+P01911, A100R/A169T/D57E/D86V/F55L/H45Y/K41T/L162R/M171V/P40S/Q125H/Q178H/Q39Y/Q99D/R42G/S66L/T262R/V114A/V67L/W38E/Y59H/Y61H/Y89S); settings: binder threshold 1,000 nM, read-out: In vitro (IC50 nM) DRB1*12:01
HLA DRB1*08:02 = HLA DRB1*08:02 (Homo sapiens, UniProt P01903+P01911, A100R/A103L/A169T/F76Y/H45Y/I96F/K41T/L162R/M171V/P40S/Q125H/Q178H/Q39Y/Q99D/R218S/R42G/S66Y/V115G/W38E); settings: binder threshold 1,000 nM, read-out: In vitro (IC50 nM) DRB1*08:02
HLA DRB1*03:01 = HLA DRB1*03:01 (Homo sapiens, UniProt P01903+P01911, A100K/A102G/A103R/A169T/F55Y/I96L/K41T/L162R/M171V/P40S/Q125H/Q178H/Q39Y/R42S/S66N/T106N/T262R/W38E/Y61H); settings: binder threshold 1,000 nM, read-out: In vitro (IC50 nM) DRB1*03:01
HLA DRB1*03:01, sequence (P01903 26-254, other chains not shown): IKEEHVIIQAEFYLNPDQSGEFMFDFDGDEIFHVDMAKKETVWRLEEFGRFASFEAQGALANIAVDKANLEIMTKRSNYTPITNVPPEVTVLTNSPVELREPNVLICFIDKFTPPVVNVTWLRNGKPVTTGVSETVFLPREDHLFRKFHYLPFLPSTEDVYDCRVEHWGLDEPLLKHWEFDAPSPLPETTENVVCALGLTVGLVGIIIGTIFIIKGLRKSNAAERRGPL
HLA DRB1*13:02 = HLA DRB1*13:02 (Homo sapiens, UniProt P01903+P01911, A100E/A169T/K41T/L162R/M171V/P40S/Q125H/Q178H/Q39Y/Q99D/R42S/S66N/T262R/V115G/W38E/Y61H); settings: binder threshold 1,000 nM, read-out: In vitro (IC50 nM) DRB1*13:02
HLA DRB1*13:02, sequence (P01903 26-254 limits assumed, other chains not shown): as the sequence (P01903 26-254, other chains not shown) above

HLA DRB1*11:01, sequence (P01903 26-254, other chains not shown): as above

| Compound | IC50 (HLA DRB1*11:01) [nM] | IC50 (HLA DRB1*09:01) [nM] | IC50 (HLA DRB1*01:01) [nM] | IC50 (HLA DRB1*04:05) [nM] | IC50 (HLA DRB1*15:01) [nM] | IC50 (HLA DRB1*04:01) [nM] | IC50 (HLA DRB1*07:01) [nM] | IC50 (HLA DRB1*12:01) [nM] | IC50 (HLA DRB1*08:02) [nM] | IC50 (HLA DRB1*03:01) [nM] | IC50 (HLA DRB1*13:02) [nM] |
| --- | --- | --- | --- | --- | --- | --- | --- | --- | --- | --- | --- |
| CC(C)C[C@H](NC(=O)[C@H](C)NC(=O)[C@H](CCCNC(=N)N)NC(=O)[C@@H](NC(=O)[C@H](CC(C)C)NC(=O)[C@@H](N)[C@@H](C)O)[C@@H](C)O)C(=O)N[C@H](C(=O)N[C@@H](C)C(=O)N[C@@H](CCC(=O)O)C(=O)N[C@@H](CO)C(=O)N[C@@H](Cc1c[nH]cn1)C(=O)N[C@H](C(=O)N[C@@H](CC(=O)O)C(=O)N[C@H](C(=O)N[C@@H](CC(=O)O)C(=O)O)[C@@H](C)O)C(C)C)[C@@H](C)O [NSP12_50] | 301 | 59 | 2100 | 99 | 1290 | 4.1 | 14 | 4490 | 501 | 1640 | – |
| CC[C@H](C)[C@H](NC(=O)[C@@H]1CCCN1C(=O)[C@H](CCSC)NC(=O)[C@@H](N)CC(C)C)C(=O)N[C@@H](CC(C)C)C(=O)N[C@H](C(=O)N[C@@H](CC(C)C)C(=O)N[C@H](C(=O)N[C@@H](CCCNC(=N)N)C(=O)N[C@@H](C)C(=O)N[C@@H](CC(C)C)C(=O)N[C@H](C(=O)N[C@@H](C)C(=O)N[C@@H](CCC(=O)O)C(=O)N[C@@H](CO)C(=O)O)[C@@H](C)O)[C@@H](C)O)[C@@H](C)O [NSP12_49] | 37 | 123 | 136 | 367 | 37 | 20 | 15 | 131 | 283 | 12100 | 409 |
| CSCC[C@H](NC(=O)[C@@H](NC(=O)[C@@H]1CCCN1C(=O)[C@H](CC(C)C)NC(=O)[C@H](CC(N)=O)NC(=O)[C@H](Cc1ccc(O)cc1)NC(=O)[C@H](CCCNC(=N)N)NC(=O)[C@H](Cc1ccc(O)cc1)NC(=O)[C@H](Cc1ccc(O)cc1)NC(=O)[C@H](CC(=O)O)NC(=O)[C@H](Cc1ccc(O)cc1)NC(=O)[C@H](CC(=O)O)NC(=O)[C@@H](N)CO)[C@@H](C)O)C(=O)N[C@@H](CS)C(=O)N[C@@H](CC(=O)O)C(=O)O [Peptide 91] | 18200 | 1430 | 6670 | 3280 | 1480 | 830 | 549 | 29600 | 3510 | – | 13600 |
| CC(C)[C@H](NC(=O)[C@H](CO)NC(=O)[C@H](CC(N)=O)NC(=O)[C@H](C)NC(=O)[C@H](Cc1ccc(O)cc1)NC(=O)[C@H](C)NC(=O)[C@@H](NC(=O)[C@@H](NC(=O)[C@H](C)NC(=O)[C@H](CC(=O)O)NC(=O)CNC(=O)[C@H](CO)NC(=O)[C@@H](N)CO)[C@@H](C)O)[C@@H](C)O)C(=O)N[C@@H](Cc1ccccc1)C(=O)N[C@@H](CC(N)=O)C(=O)O [Peptide 137] | 15900 | 197 | 1800 | 27200 | 567 | 5180 | 3970 | 22700 | – | – | – |
| CC[C@H](C)[C@H](NC(=O)[C@H](CC(=O)O)NC(=O)[C@H](CS)NC(=O)[C@H](CCSC)NC(=O)[C@@H](NC(=O)[C@@H]1CCCN1C(=O)[C@H](CC(C)C)NC(=O)[C@H](CC(N)=O)NC(=O)[C@H](Cc1ccc(O)cc1)NC(=O)[C@H](CCCNC(=N)N)NC(=O)[C@@H](N)Cc1ccc(O)cc1)[C@@H](C)O)C(=O)N[C@@H](CCCNC(=N)N)C(=O)N[C@@H](CCC(N)=O)C(=O)N[C@@H](CC(C)C)C(=O)N[C@@H](CC(C)C)C(=O)O [Peptide 92] | 8940 | 1490 | 12000 | 4640 | 2910 | 5310 | 1840 | 5120 | – | – | – |
| CSCC[C@H](NC(=O)[C@H](CO)NC(=O)[C@H](Cc1ccccc1)NC(=O)[C@H](Cc1c[nH]cn1)NC(=O)[C@H](CCCCN)NC(=O)[C@H](CCCNC(=N)N)NC(=O)[C@H](CC(C)C)NC(=O)[C@H](Cc1ccc(O)cc1)NC(=O)[C@H](C)NC(=O)[C@H](Cc1ccc(O)cc1)NC(=O)[C@H](Cc1ccccc1)NC(=O)[C@H](CCC(=O)O)NC(=O)[C@H](CC(N)=O)NC(=O)[C@@H](NC(=O)[C@@H](N)Cc1ccccc1)C(C)C)C(=O)O [NSP12_149] | 70 | 2510 | 36100 | – | 1250 | 8370 | 3830 | 2540 | 828 | – | – |
| CC[C@H](C)[C@H](NC(=O)[C@@H]1CCCN1C(=O)[C@H](CCSC)NC(=O)[C@H](CC(C)C)NC(=O)[C@H](CC(C)C)NC(=O)[C@H](CO)NC(=O)[C@H](Cc1ccc(O)cc1)NC(=O)[C@H](Cc1ccc(O)cc1)NC(=O)[C@@H](N)CO)C(=O)N[C@@H](CC(C)C)C(=O)N[C@H](C(=O)N[C@@H](CC(C)C)C(=O)N[C@H](C(=O)N[C@@H](CCCNC(=N)N)C(=O)N[C@@H](C)C(=O)O)[C@@H](C)O)[C@@H](C)O [NSP12_48] | 73 | 1550 | 7.7 | 147 | 23 | 224 | 115 | 1350 | 498 | 9120 | – |
| CC(C)C[C@H](NC(=O)[C@H](Cc1ccc(O)cc1)NC(=O)[C@H](C)NC(=O)[C@H](Cc1ccc(O)cc1)NC(=O)[C@H](Cc1ccccc1)NC(=O)[C@H](CCC(=O)O)NC(=O)[C@H](CC(N)=O)NC(=O)[C@@H](NC(=O)[C@H](Cc1ccccc1)NC(=O)[C@H](CC(=O)O)NC(=O)[C@@H](NC(=O)[C@H](CC(=O)O)NC(=O)[C@@H](NC(=O)[C@@H](N)CC(=O)O)C(C)C)[C@@H](C)O)C(C)C)C(=O)N[C@@H](CCCNC(=N)N)C(=O)O [Peptide 148] | 949 | 6950 | 856 | – | 1180 | 16900 | – | – | 2200 | 28500 | – |
| CC(C)C[C@H](NC(=O)[C@H](C)NC(=O)[C@H](CC(=O)O)NC(=O)[C@H](CCC(N)=O)NC(=O)[C@H](CC(=O)O)NC(=O)[C@H](CCC(=O)O)NC(=O)[C@@H](N)Cc1ccc(O)cc1)C(=O)N[C@@H](Cc1ccccc1)C(=O)N[C@@H](C)C(=O)N[C@@H](Cc1ccc(O)cc1)C(=O)N[C@H](C(=O)N[C@@H](CCCCN)C(=O)N[C@@H](CCCNC(=N)N)C(=O)N[C@@H](CC(N)=O)C(=O)N[C@H](C(=O)O)C(C)C)[C@@H](C)O [Peptide 105] | 21 | 8570 | 16000 | – | 480 | 3090 | 35 | – | 495 | 39400 | – |

From publication PMC10196118, “Evidence for broad cross-reactivity of the SARS-CoV-2 NSP12-directed CD4^+ T-cell response with pre-primed responses directed against common cold coronaviruses” (Frontiers in Immunology, 2023)
